In patent US6017911A, “Pyridonecarboxylic acid derivatives and intermediates for the synthesis thereof” (Dainippon Pharmaceutical Co., Ltd., priority 1996, dated 2000):
In brackets after ≈: the same amount, converted by molar mass. Like-named read-outs stand apart in the source and are kept apart here. Blank lines part the entries; values can stand above or below the molecule they belong to.

Columns and labels:
[1] = tested on: Pseudomonas aeruginosa No 12; test: In vitro antibacterial activity (MIC), Pseudomonas aeruginosa No 12; assay type: cell-based; conditions: NO12, read-out: Minimum inhibitory concentration (MIC)
[2] = tested on: Staphylococcus aureus MS16405; test: In vitro antibacterial activity (MIC), Staphylococcus aureus MS16405; assay type: cell-based
[3] = tested on: Staphylococcus aureus 50774; test: In vitro antibacterial activity (MIC), Staphylococcus aureus 50774; assay type: cell-based
[4] = tested on: Escherichia coli NIHJ JC-2; test: In vitro antibacterial activity (MIC), Escherichia coli NIHJ JC-2; assay type: cell-based; conditions: NIHJJC2, read-out: Minimum inhibitory concentration (MIC)
[5] = tested on: Staphylococcus aureus 50774; test: Effect on systemic infection in mice; assay type: in vivo, mice (male Std-ddy strain); conditions: 168 h; Staphylococcus aureus 50774 i.p. infection; oral, twice (immediately and 6 h after infection); survival 7 days after infection
Method: The effects (ED50; mg/kg) on systemic infection in mice were determined as follows: Male Std-ddy strain mice (weighing about 20 g) were infected with each of the pathogenic bacteria shown in Table 2 by administering 5×10^3 viable cells intraperitoneally to each mouse. Then, a suspension of each test compound in 0.4% carboxymethylcellulose was orally administered twice, i.e., immediately after infection and 6 hours after infection. Seven days after infection, the ED50 value was calculated from the survival rate of each mouse group by probit analysis.
As a reference compound, there was used enoxacin [1-ethyl-6-fluoro-1,4-dihydro-4-oxo-7-(1-piperazinyl-1,8-naphthyridine-3-carboxylic acid; hereinafter abbreviated as ENX] that is an excellent antibacterial agent currently on the market.
The test compounds shown in the following Tables 1 and 2 are identified by the respective numbers of the Examples which will be given later.

[6] = Staphylococcus aureus MS16405, read-out: Minimum inhibitory concentration (MIC)
[7] = Staphylococcus aureus 50774, read-out: Minimum inhibitory concentration (MIC)

SMILES: N[C@H]1CN(c2c(F)cc3c(=O)c(C(=O)O)cn(C4CC4)c3c2Cl)[C@@H]2CCO[C@@H]21 (relative stereo) [Example 15]
- MIC [1]: 0.78 µg/mL (≈ 1.91 µM)
- MIC [2, 6]: 0.78 µg/mL (≈ 1.91 µM)
- MIC [3, 7]: 0.025 µg/mL (≈ 0.0613 µM)
- MIC [4]: 0.013 µg/mL (≈ 0.0319 µM)
- ED50 [5]: 1.12 mg/kg

SMILES: CCn1cc(C(=O)O)c(=O)c2cc(F)c(N3CCNCC3)nc21 [ENX, reference compound]
- MIC [1]: 0.78 µg/mL (≈ 2.44 µM)
- MIC ([2]; Staphylococcus aureus, MS16405, read-out: Minimum inhibitory concentration (MIC)): 100 µg/mL (≈ 312 µM)
- MIC ([3]; Staphylococcus aureus, 50774, read-out: Minimum inhibitory concentration (MIC)): 0.39 µg/mL (≈ 1.22 µM)
- MIC [4]: 0.05 µg/mL (≈ 0.156 µM)
- ED50 [5]: 9.89 mg/kg

Now from value to molecule, other results behind:

- MIC [1]: 1.56 µg/mL (≈ 3.74 µM)
- MIC [2, 6]: 1.56 µg/mL (≈ 3.74 µM)
- MIC [3, 7]: 0.006 µg/mL (≈ 0.0144 µM)
- MIC [4]: 0.1 µg/mL (≈ 0.24 µM)
SMILES: COc1c(N2C[C@@H](N)[C@H]3OCC[C@H]32)c(F)c(C)c2c(=O)c(C(=O)O)cn(C3CC3)c12 (relative stereo) [Example 16]
- ED50 [5]: 0.78 mg/kg

- MIC [1]: 0.39 µg/mL (≈ 0.996 µM)
- MIC [2, 6]: 1.56 µg/mL (≈ 3.99 µM)
- MIC [3, 7]: 0.025 µg/mL (≈ 0.0639 µM)
- MIC [4]: 0.006 µg/mL (≈ 0.0153 µM)
SMILES: N[C@H]1CN(c2c(F)cc3c(=O)c(C(=O)O)cn(C4CC4)c3c2F)[C@@H]2CCO[C@@H]21 (relative stereo) [Example 18]
- ED50 [5]: 0.928 mg/kg

- MIC [1]: 1.56 µg/mL (≈ 3.74 µM)
- MIC [2, 6]: 0.78 µg/mL (≈ 1.87 µM)
- MIC [3, 7]: 0.013 µg/mL (≈ 0.0311 µM)
- MIC [4]: 0.1 µg/mL (≈ 0.24 µM)
SMILES: COc1c(N2C[C@@H](N)[C@H]3OCCC[C@H]32)c(F)cc2c(=O)c(C(=O)O)cn(C3CC3)c12 (relative stereo) [Example 19]
- ED50 [5]: 0.928 mg/kg
